Publication PMC7562955 (Nature Communications, 2020)

Biological target: T1, TLR7 (Homo sapiens, UniProt Q9NYK1)
T1 sequence (Q9NYK1 27-1049): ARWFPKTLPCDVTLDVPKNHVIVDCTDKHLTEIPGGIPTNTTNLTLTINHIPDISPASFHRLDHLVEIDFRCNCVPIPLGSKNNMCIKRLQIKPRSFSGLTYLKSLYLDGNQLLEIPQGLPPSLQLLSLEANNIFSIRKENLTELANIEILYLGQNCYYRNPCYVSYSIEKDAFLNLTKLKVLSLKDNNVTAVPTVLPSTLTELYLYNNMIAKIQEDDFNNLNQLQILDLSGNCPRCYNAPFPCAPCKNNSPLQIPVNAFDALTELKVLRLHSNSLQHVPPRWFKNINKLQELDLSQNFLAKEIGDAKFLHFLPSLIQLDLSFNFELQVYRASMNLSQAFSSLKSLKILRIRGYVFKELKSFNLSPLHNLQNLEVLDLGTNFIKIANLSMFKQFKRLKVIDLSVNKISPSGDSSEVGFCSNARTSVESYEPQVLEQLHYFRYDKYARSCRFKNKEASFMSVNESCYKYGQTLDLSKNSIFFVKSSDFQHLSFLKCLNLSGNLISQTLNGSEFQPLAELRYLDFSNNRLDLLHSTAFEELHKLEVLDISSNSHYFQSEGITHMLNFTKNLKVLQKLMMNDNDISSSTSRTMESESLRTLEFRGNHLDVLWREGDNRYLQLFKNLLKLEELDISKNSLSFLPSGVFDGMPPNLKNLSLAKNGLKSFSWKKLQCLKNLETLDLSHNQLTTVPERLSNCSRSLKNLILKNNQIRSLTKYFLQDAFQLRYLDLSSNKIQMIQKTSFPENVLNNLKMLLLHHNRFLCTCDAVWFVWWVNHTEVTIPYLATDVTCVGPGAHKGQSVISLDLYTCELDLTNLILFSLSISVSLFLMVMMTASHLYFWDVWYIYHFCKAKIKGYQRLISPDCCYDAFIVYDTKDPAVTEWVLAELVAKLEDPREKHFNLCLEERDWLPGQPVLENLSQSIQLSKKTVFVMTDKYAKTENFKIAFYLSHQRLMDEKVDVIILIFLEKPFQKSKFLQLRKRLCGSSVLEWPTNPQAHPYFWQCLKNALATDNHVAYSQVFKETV
Assay: Dose-response relationship between antagonist and R848, human TLR7 reporter gene assay
Assay type: cell-based
Set-up: host or cells: HEK293 (TLR7/NF-κB/SEAPorter)
Procedure: Compounds were dissolved in dimethyl sulfoxide. Human TLR7 reporter cell line (Novus Biological) were seeded in 96-well microtiter plate (AGC techno glass) at 5 × 10^4 cells/well in DMEM (GIBCO) with 10% fetal bovine serum (GIBCO), and 10 μg ml^−1 Blastcidin S HCl (GIBCO) and incubated at 37 °C in 5% CO2. The plates were incubated over-night and then addition with various concentrations of compound. After 30 min, R848 (human TLR7/8 ligand) that was diluted with the medium was added, wherein final concentration was adjusted to 0.01, 0.03, 0.1, 0.3, 1, 3, 10, 30, 100, 300 and 1000 μM. The plates were then incubated an additional 20 ± 1 h at 37 °C in 5% CO2, and then the SEAP activity was measured as activation of human TLR7. The SEAP activity was evaluated as follows: pNPP (Invitrogen) was added to the incubated sample (50 μl/well); after 15 min, 4 mol l^−1 sodium hydroxide solution (nacalai tesque) was added thereto (50 μl/well) to quench the reaction; and the absorbance of each sample was measured at 405 nm with microplate reader SpectraMax M4 (Molecular Devices).

CCOc1nc(C)c2nc(-c3cncc(F)c3)n(Cc3ccc(CN4C[C@@H]5C[C@H]4CN5C)cc3)c2n1 [Cpd-7]
mode of action against R848: acted as antagonists
TLR7 reporter signal (Cpd-7 0.001 µM, log10[R848 (µM)] 0): 15.1994
TLR7 reporter signal (Cpd-7 0.001 µM, log10[R848 (µM)] 0.477121): 53.0748
TLR7 reporter signal (Cpd-7 0.001 µM, log10[R848 (µM)] 1): 91.3639
TLR7 reporter signal (Cpd-7 0.001 µM, log10[R848 (µM)] 1.47712): 103.082
TLR7 reporter signal (Cpd-7 0.001 µM, log10[R848 (µM)] 2): 104.508
TLR7 reporter signal (Cpd-7 0.001 µM, log10[R848 (µM)] 2.47712): 104.681
TLR7 reporter signal (Cpd-7 0.001 µM, log10[R848 (µM)] 3): 101.38
TLR7 reporter signal (Cpd-7 0.001 µM, log10[R848 (µM)] -0.522879): 2.983
TLR7 reporter signal (Cpd-7 0.001 µM, log10[R848 (µM)] -1): 1.3957
TLR7 reporter signal (Cpd-7 0.001 µM, log10[R848 (µM)] -1.52288): 1.22
TLR7 reporter signal (Cpd-7 0.001 µM, log10[R848 (µM)] -2): 0.09581
TLR7 reporter signal (Cpd-7 0.003 µM, log10[R848 (µM)] 0): 11.9465
TLR7 reporter signal (Cpd-7 0.003 µM, log10[R848 (µM)] 0.477121): 48.0206
TLR7 reporter signal (Cpd-7 0.003 µM, log10[R848 (µM)] 1): 90.4952
TLR7 reporter signal (Cpd-7 0.003 µM, log10[R848 (µM)] 1.47712): 102.689
TLR7 reporter signal (Cpd-7 0.003 µM, log10[R848 (µM)] 2): 104.173
TLR7 reporter signal (Cpd-7 0.003 µM, log10[R848 (µM)] 2.47712): 102.967
TLR7 reporter signal (Cpd-7 0.003 µM, log10[R848 (µM)] 3): 101.934
TLR7 reporter signal (Cpd-7 0.003 µM, log10[R848 (µM)] -0.522879): 2.073
TLR7 reporter signal (Cpd-7 0.003 µM, log10[R848 (µM)] -1): 1.332
TLR7 reporter signal (Cpd-7 0.003 µM, log10[R848 (µM)] -1.52288): 1.335
TLR7 reporter signal (Cpd-7 0.003 µM, log10[R848 (µM)] -2): -0.4152
TLR7 reporter signal (Cpd-7 0.01 µM, log10[R848 (µM)] 3): 101.214
TLR7 reporter signal (Cpd-7 0.1 µM, log10[R848 (µM)] 0): 3.483
TLR7 reporter signal (Cpd-7 0.1 µM, log10[R848 (µM)] 0.477121): 8.9858
TLR7 reporter signal (Cpd-7 0.1 µM, log10[R848 (µM)] 1): 46.2209
TLR7 reporter signal (Cpd-7 0.1 µM, log10[R848 (µM)] 1.47712): 89.5722
TLR7 reporter signal (Cpd-7 0.1 µM, log10[R848 (µM)] 2): 103.066
TLR7 reporter signal (Cpd-7 0.1 µM, log10[R848 (µM)] 2.47712): 105.195
TLR7 reporter signal (Cpd-7 0.1 µM, log10[R848 (µM)] 3): 99.2702
TLR7 reporter signal (Cpd-7 0.1 µM, log10[R848 (µM)] -0.522879): 1.691
TLR7 reporter signal (Cpd-7 0.1 µM, log10[R848 (µM)] -1): 1.377
TLR7 reporter signal (Cpd-7 0.1 µM, log10[R848 (µM)] -1.52288): 1.495
TLR7 reporter signal (Cpd-7 0.1 µM, log10[R848 (µM)] -2): -0.1134
TLR7 reporter signal (Cpd-7 0.3 µM, log10[R848 (µM)] 0): 1.803
TLR7 reporter signal (Cpd-7 0.3 µM, log10[R848 (µM)] 0.477121): 3.628
TLR7 reporter signal (Cpd-7 0.3 µM, log10[R848 (µM)] 1): 15.5922
TLR7 reporter signal (Cpd-7 0.3 µM, log10[R848 (µM)] 1.47712): 56.9825
TLR7 reporter signal (Cpd-7 0.3 µM, log10[R848 (µM)] 2): 94.1266
TLR7 reporter signal (Cpd-7 0.3 µM, log10[R848 (µM)] 2.47712): 104.981
TLR7 reporter signal (Cpd-7 0.3 µM, log10[R848 (µM)] 3): 99.9984
TLR7 reporter signal (Cpd-7 0.3 µM, log10[R848 (µM)] -0.522879): 2.988
TLR7 reporter signal (Cpd-7 0.3 µM, log10[R848 (µM)] -1): 1.0827
TLR7 reporter signal (Cpd-7 0.3 µM, log10[R848 (µM)] -1.52288): 0.3928
TLR7 reporter signal (Cpd-7 0.3 µM, log10[R848 (µM)] -2): -0.2667
TLR7 reporter signal (Cpd-7 1 µM, log10[R848 (µM)] 0): 1.865
TLR7 reporter signal (Cpd-7 1 µM, log10[R848 (µM)] 0.477121): 1.87
TLR7 reporter signal (Cpd-7 1 µM, log10[R848 (µM)] 1): 3.318
TLR7 reporter signal (Cpd-7 1 µM, log10[R848 (µM)] 1.47712): 15.4645
TLR7 reporter signal (Cpd-7 1 µM, log10[R848 (µM)] 2): 58.664
TLR7 reporter signal (Cpd-7 1 µM, log10[R848 (µM)] 2.47712): 94.6679
TLR7 reporter signal (Cpd-7 1 µM, log10[R848 (µM)] 3): 98.5819
TLR7 reporter signal (Cpd-7 1 µM, log10[R848 (µM)] -0.522879): 2.201
TLR7 reporter signal (Cpd-7 1 µM, log10[R848 (µM)] -1): 1.343
TLR7 reporter signal (Cpd-7 1 µM, log10[R848 (µM)] -1.52288): 0.6276
TLR7 reporter signal (Cpd-7 1 µM, log10[R848 (µM)] -2): -0.3625
TLR7 reporter signal (Cpd-7 3 µM, log10[R848 (µM)] 0): 1.3957
TLR7 reporter signal (Cpd-7 3 µM, log10[R848 (µM)] 0.477121): 2.034
TLR7 reporter signal (Cpd-7 3 µM, log10[R848 (µM)] 1): 1.935
TLR7 reporter signal (Cpd-7 3 µM, log10[R848 (µM)] 1.47712): 4.379
TLR7 reporter signal (Cpd-7 3 µM, log10[R848 (µM)] 2): 17.1093
TLR7 reporter signal (Cpd-7 3 µM, log10[R848 (µM)] 2.47712): 59.4864
TLR7 reporter signal (Cpd-7 3 µM, log10[R848 (µM)] 3): 88.3569
TLR7 reporter signal (Cpd-7 3 µM, log10[R848 (µM)] -0.522879): 2.494
TLR7 reporter signal (Cpd-7 3 µM, log10[R848 (µM)] -1): 1.782
TLR7 reporter signal (Cpd-7 3 µM, log10[R848 (µM)] -1.52288): 0.9374
TLR7 reporter signal (Cpd-7 3 µM, log10[R848 (µM)] -2): -0.1469
TLR7 reporter signal (Cpd-7 10 µM, log10[R848 (µM)] 0): 1.161
TLR7 reporter signal (Cpd-7 10 µM, log10[R848 (µM)] 0.477121): 1.935
TLR7 reporter signal (Cpd-7 10 µM, log10[R848 (µM)] 1): 1.487
TLR7 reporter signal (Cpd-7 10 µM, log10[R848 (µM)] 1.47712): 2.632
TLR7 reporter signal (Cpd-7 10 µM, log10[R848 (µM)] 2): 3.275
TLR7 reporter signal (Cpd-7 10 µM, log10[R848 (µM)] 2.47712): 13.6775
TLR7 reporter signal (Cpd-7 10 µM, log10[R848 (µM)] 3): 50.3984
TLR7 reporter signal (Cpd-7 10 µM, log10[R848 (µM)] -0.522879): 2.055
TLR7 reporter signal (Cpd-7 10 µM, log10[R848 (µM)] -1): 1.301
TLR7 reporter signal (Cpd-7 10 µM, log10[R848 (µM)] -1.52288): 0.4759
TLR7 reporter signal (Cpd-7 10 µM, log10[R848 (µM)] -2): -0.6883
TLR7 reporter signal (Cpd-7 30 µM, log10[R848 (µM)] 0): 1.6017
TLR7 reporter signal (Cpd-7 30 µM, log10[R848 (µM)] 0.477121): 2.2708
TLR7 reporter signal (Cpd-7 30 µM, log10[R848 (µM)] 1): 2.316
TLR7 reporter signal (Cpd-7 30 µM, log10[R848 (µM)] 1.47712): 3.334
TLR7 reporter signal (Cpd-7 30 µM, log10[R848 (µM)] 2): 2.078
TLR7 reporter signal (Cpd-7 30 µM, log10[R848 (µM)] 2.47712): 2.285
TLR7 reporter signal (Cpd-7 30 µM, log10[R848 (µM)] 3): 8.593
TLR7 reporter signal (Cpd-7 30 µM, log10[R848 (µM)] -0.522879): 2.676
TLR7 reporter signal (Cpd-7 30 µM, log10[R848 (µM)] -1): 1.493
TLR7 reporter signal (Cpd-7 30 µM, log10[R848 (µM)] -1.52288): 0.7617
TLR7 reporter signal (Cpd-7 30 µM, log10[R848 (µM)] -2): -0.5701
TLR7 reporter signal (Cpd-7 100 µM, log10[R848 (µM)] 0): 1.319
TLR7 reporter signal (Cpd-7 100 µM, log10[R848 (µM)] 0.477121): 2.528
TLR7 reporter signal (Cpd-7 100 µM, log10[R848 (µM)] 1): 1.127
TLR7 reporter signal (Cpd-7 100 µM, log10[R848 (µM)] 1.47712): 2.558
TLR7 reporter signal (Cpd-7 100 µM, log10[R848 (µM)] 2): 1.63
TLR7 reporter signal (Cpd-7 100 µM, log10[R848 (µM)] 2.47712): 1.53
TLR7 reporter signal (Cpd-7 100 µM, log10[R848 (µM)] 3): 0.3114
TLR7 reporter signal (Cpd-7 100 µM, log10[R848 (µM)] -0.522879): 1.865
TLR7 reporter signal (Cpd-7 100 µM, log10[R848 (µM)] -1): 1.004
TLR7 reporter signal (Cpd-7 100 µM, log10[R848 (µM)] -1.52288): 0.5685
TLR7 reporter signal (Cpd-7 100 µM, log10[R848 (µM)] -2): -0.7138
